This note sets out measurements from US20030068615A1, “Polypeptides that bind HIV gp120 and related nucleic acids, antibodies, compositions, and methods of use” (priority 1999, published 2003).

Where “and” joins values, the source holds several entries; their conditions need not be identical. Identical values can stand only once. Like-named read-outs stand apart in the source and are kept apart here.

This test has as its target HIV-1LAI envelope gp120 (Human immunodeficiency virus type 1 group M subtype B, UniProt P03377). The test is classed as binding. The following applies: for Counts per 20′ Average-background: CCR5 18-mer scan, radiolabeled HIV-1LAI gp120; for Relative % of Control: mean of two syntheses and binding experiments ± average deviation, wild-type = 100%; for number of radioactive decays (counts) counted: human CD4 21-mer scan, empty control 2075.

The mark [1] stands for this setting: Panel C, 15-mers and 18-mers of CD4, empty control 556.
Where [2] appears, read: Panel D, 9-mers and 12-mers of CD4, empty control […].
Setting [3] is: STRL33 18-mer scan, background subtracted, first of two count columns.
Setting [4] is: STRL33 18-mer scan, background subtracted, second of two count columns.
Where [5] appears, read: Panel G, alanine replacements and serial truncations (Z) of CD4 polypeptides, empty control 580.
[6] abbreviates: CXCR4 18-mer scan, background subtracted, empty control 0.
The mark [7] stands for this setting: CXCR4 18-mer scan, empty control 412.
[8] abbreviates: Panel B, 15-mers and 18-mers of CD4, empty control 575.
[9] abbreviates: Panel E, 9-mers and 12-mers of CD4, empty control 571.
The mark [10] stands for this setting: Panel A, 21-mers of CD4, empty control 515 and 617.

As for LAFQKASSIVYKKEGEQV, under setting [1], the “COUNTS of radiolabeled gp120 retained” value is reported as 665 counts.
As to QKINVKQIAARLLPPLYS [CCR5 segment 21-38], the “Counts per 20′ Average-background” value (background subtracted) amounted to 20 counts per 20′.
As to DTHLLQGQSLTL, the “COUNTS of radiolabeled gp120 retained” value under setting [2] was 527 counts.
Turning to VYKKEGEQVEFSFPL, under setting [1], the “COUNTS of radiolabeled gp120 retained” value was found to be 714 counts.
Turning to MTWGKVTSLLIWVISLLV, the “radioactive counts recorded in twenty minutes” value (“radioactive counts recorded” for short) is −0.5 counts under setting [3] and −26.5 counts under setting [4].
As to GEQVEFSFPLAFAVE, the “COUNTS of radiolabeled gp120 retained” value under setting [5] is 20627 counts and 19516 counts.
Consider FQKASSIVYKKEGEQ, for which the “COUNTS of radiolabeled gp120 retained” value under setting [1] turned out to be 637 counts.
For the sequence VQLLVFGLTANS, the “COUNTS of radiolabeled gp120 retained” value under setting [2] is listed as 747 counts.
Take “YSIIFLTGIVGNGLVILV [CXCR4 segment 45-62]”: the “radioactive counts recorded” value by setting is: under setting [6], 123 counts; under setting [7], 535 counts.
As for “ADYQVSSPIYDINYYTSE [CCR5 (1-18) variant M1A]”, the “Relative % of Control” value (CCR5 (1-18) alanine variants) is given as 167 ± 4%.
Turning to TVLQNQKKVEFKIDIVVL, the “COUNTS of radiolabeled gp120 retained” value under setting [1] is reported as 655 counts.
As for VEFSFPLAFTVEKLT, the “COUNTS of radiolabeled gp120 retained” value under setting [1] turned out to be 899 counts.
VFGLTANSDTHL: under setting [2], the “COUNTS of radiolabeled gp120 retained” value was determined as 548 counts.
Take IVVLAFQKASSIVYK: the “COUNTS of radiolabeled gp120 retained” value under setting [1] was 783 counts.
As to QGNFPLIIKNLKIEDSDT, under setting [8], the “COUNTS of radiolabeled gp120 retained” value was found to be 564 counts.
As to FKTSAQHALTSVSRGSSL, the “radioactive counts recorded” value by setting is: under setting [6], 173 counts; under setting [7], 585 counts.
Turning to MDYQVSAPIYDINYYTSE, the “Relative % of Control” value (CCR5 (1-18) alanine variants) is given as 56 ± 2%.
Consider “GCEFENTVHKWISITEAL [CXCR4 segment 273-290]”, for which the “radioactive counts recorded” value was 264 counts under setting [6] and 676 counts under setting [7].
For KVEFKIDIVVLA, the “COUNTS of radiolabeled gp120 retained” value under setting [9] worked out at 560 counts.
Regarding FKIDIVVLAFQKASSIVY, the “COUNTS of radiolabeled gp120 retained” value under setting [1] stood at 843 counts.
“MAGISIYTSDNYTEEMGS [CXCR4 (1-18) variant E2A]”: where the note is “CXCR4 (1-18) alanine variants”, the “Relative % of Control” value is reported as 36 ± 0.3%.
On to EDQKEEVQLLVF, for which the “COUNTS of radiolabeled gp120 retained” value under setting [2] was determined as 1379 counts.
Regarding QVEFSFPLAFTVEKL, the “COUNTS of radiolabeled gp120 retained” value under setting [1] was determined as 2047 counts.
Take DIVVLAFQKASSIVYKKE: the “COUNTS of radiolabeled gp120 retained” value under setting [1] is given as 660 counts.
Turning to LVFFQKHIAKRFCKCCSI, the “Counts per 20′ Average-background” value (background subtracted) stood at 76 counts per 20′.
Turning to “TEEMGSGDYDSMKEPCFR [CXCR4 segment 13-30]”, the “radioactive counts recorded” value under setting [6] is listed as 41 counts and the “radioactive counts recorded” value under setting [7] is 453 counts.
With GEQVEASFPLAFTVE, the “COUNTS of radiolabeled gp120 retained” value under setting [5] is 6793 counts and 6533 counts.
Turning to PLIIKNLKIEDS, the “COUNTS of radiolabeled gp120 retained” value under setting [2] was 565 counts.
On to FLPLLTMIVCYSVIIKTL, for which the “radioactive counts recorded” value is 1270.5 counts under setting [3] and 1195.5 counts under setting [4].
With LVFGLTANSDTH, the “COUNTS of radiolabeled gp120 retained” value under setting [2] is listed as 586 counts.
As to EFSFPLAFTVEKLTGSGELWW, under setting [10], the “COUNTS of radiolabeled gp120 retained” value is 681 counts.
Consider DTHLLQGQS, for which the “COUNTS of radiolabeled gp120 retained” value under setting [2] was found to be 578 counts.
ASSIVYKKEGEQVEFSFP: the “COUNTS of radiolabeled gp120 retained” value under setting [1] is recorded as 701 counts.
As to EDSDTYICEVEDQKEEVQ, under setting [8], the “COUNTS of radiolabeled gp120 retained” value is listed as 788 counts.
As for CKCCSIFQQEAPERASSV [CCR5 segment 321-], under “background subtracted”, the “Counts per 20′ Average-background” value is on record as 53 counts per 20′.
QKKVEFKIDIVV: the “COUNTS of radiolabeled gp120 retained” value under setting [9] was 595 counts.
With KVEFKIDIVVLAFQK, the “COUNTS of radiolabeled gp120 retained” value under setting [1] was determined as 1051 counts.
Regarding “NLTLALEAKTGKLHQEVNLVV [human CD4 296-316]”, the “number of radioactive decays (counts) counted” value (shortened to “number of radioactive decays”) is listed as 1676 counts.
Turning to “MEGIAIYTSDNYTEEMGS [CXCR4 (1-18) variant S5A]”, where the note is “CXCR4 (1-18) alanine variants”, the “Relative % of Control” value worked out at 133 ± 5%.
As to LSKGKRGGHSSVSTESES, the “radioactive counts recorded” value runs as follows: under setting [6], 185 counts; under setting [7], 597 counts.
For RNEKKRHRAVRLIFTIMI [CCR5 segment 225-], for the setting “background subtracted”, the “Counts per 20′ Average-background” value came out at 23 counts per 20′.
“IDSFILLEIIKQGCEFEN [CXCR4 segment 261-278]”: the “radioactive counts recorded” value runs as follows: under setting [6], 3472 counts; under setting [7], 3884 counts.
FGQVMCKSLLGIYTINFY: the “radioactive counts recorded” value by setting is: under setting [3], 1257.5 counts; under setting [4], 1354.5 counts.
For the sequence LLQGQSLTLTLE, the “COUNTS of radiolabeled gp120 retained” value under setting [2] is recorded as 1320 counts.
Consider EVEDQKEEVQLLVFGLTA, for which, under setting [8], the “COUNTS of radiolabeled gp120 retained” value turned out to be 3647 counts.
Consider TCITVDRFIVVVKATKAY, for which the “radioactive counts recorded” value by setting is: under setting [3], 89.5 counts; under setting [4], 346.5 counts.
Regarding SVITWVVAVFASLPGIIF, under “background subtracted”, the “Counts per 20′ Average-background” value was 46 counts per 20′.
In the case of “FYPNDLWVVVFQFQHIMV [CXCR4 segment 189-206]”, the “radioactive counts recorded” value was 416 counts under setting [6] and 828 counts under setting [7].
As for MEGISIYTSDNYTEEAGS, the “Relative % of Control” value (CXCR4 (1-18) alanine variants) is given as 88 ± 4%.
Regarding “LPTIYSIIFLTGIVGNGL [CXCR4 segment 41-58]”, the “radioactive counts recorded” value by setting is: under setting [6], 118 counts; under setting [7], 530 counts.
Consider TLGFFLPLLTMIVCYSVI, for which the “radioactive counts recorded” value is 2387.5 counts under setting [3] and 479.5 counts under setting [4].
Turning to FFIILLTIDRYLAVVHAV [CCR5 segment 117-], where the note is “background subtracted”, the “Counts per 20′ Average-background” value is listed as 77 counts per 20′.
For the sequence MEGISIYTADNYTEEMGS, the “Relative % of Control” value (CXCR4 (1-18) alanine variants) turned out to be 70 ± 4%.
In the case of THLLQGQSL, the “COUNTS of radiolabeled gp120 retained” value under setting [2] stood at 512 counts.
As to FPLAFTVEKLTGSGE, under setting [1], the “COUNTS of radiolabeled gp120 retained” value came to 556 counts.
Regarding MEGISAYTSDNYTEEMGS, the “Relative % of Control” value (CXCR4 (1-18) alanine variants) came to 2 ± 1%.
VFGLTANSDTHLLQG: under setting [8], the “COUNTS of radiolabeled gp120 retained” value is on record as 532 counts.
Take “SRGSSLKILSKGKRGGHS [CXCR4 segment 321-338]”: the “radioactive counts recorded” value by setting is: under setting [6], 169 counts; under setting [7], 581 counts.
For the sequence LAFQKASSIVYK, the “COUNTS of radiolabeled gp120 retained” value under setting [9] worked out at 465 counts.
With IKNLKIEDSDTYICE, the “COUNTS of radiolabeled gp120 retained” value under setting [8] was found to be 568 counts.
As for LKARTVTFGVWDSVITWV [CCR5 segment 137-], the “Counts per 20′ Average-background” value (background subtracted) was 74 counts per 20′.
ANSDTHLLQGQS: the “COUNTS of radiolabeled gp120 retained” value under setting [2] is 559 counts.
In the case of LTCEVWGPTSPKLMLSLKLEN, the “number of radioactive decays” value worked out at 2412 counts.
As for LTANSDTHL, the “COUNTS of radiolabeled gp120 retained” value under setting [2] is listed as 596 counts.
On the same count and under the same terms, the value for LTANSDTHLLQG was 534 counts.
Still for that read-out and setting: next, ICEVEDQKE: 596 counts.
Regarding HDYHEDYGFSSFNDSSQE, the “Binding Results For Window Length (counts bound-background), 9” value (STRL33 amino terminus, 9-mer starting at the first residue of the printed sequence, background subtracted) is reported as 708 counts. For the same sequence, under “STRL33 amino terminus, 12-mer starting at the first residue of the printed sequence, background subtracted”, the “Binding Results For Window Length (counts bound-background), 12” value amounted to 1427 counts. In addition, the “Binding Results For Window Length (counts bound-background), 15” value (STRL33 amino terminus, 15-mer starting at the first residue of the printed sequence, background subtracted) worked out at 1772 counts. For the setting “STRL33 amino terminus, 18-mer starting at the first residue of the printed sequence, background subtracted”, the “Binding Results For Window Length (counts bound-background), 18” value is given as 1500 counts.
With “DLVFVCTLPFWAYAGIHE [STRL33 segment 77-94]”, the “radioactive counts recorded” value by setting is: under setting [3], 1116.5 counts; under setting [4], 1063.5 counts.
For GEQVEFSFPLAFTVA, under setting [5], the “COUNTS of radiolabeled gp120 retained” value is 18371 counts and 18187 counts.
In the case of “KLVKDIGCLPYLGVSHQW [STRL33 segment 301-318]”, the “radioactive counts recorded” value reads like this: under setting [3], −2.5 counts; under setting [4], 27.5 counts.
In the case of IVVLAFQKASSI, the “COUNTS of radiolabeled gp120 retained” value under setting [9] is on record as 548 counts.
For the sequence IVYKKEGEQVEFSFP, under setting [1], the “COUNTS of radiolabeled gp120 retained” value is on record as 615 counts.
Consider MDYQVSSPIYDINYYASE, for which the “Relative % of Control” value (CCR5 (1-18) alanine variants) worked out at 78 ± 34%.
With GLNNCSSSNRLDQAMQVT [CCR5 segment 265-], the “Counts per 20′ Average-background” value (background subtracted) is given as −31 counts per 20′.
For EQVEFSFPLAFTVEKLTGSGE, the “COUNTS of radiolabeled gp120 retained” value under setting [10] amounted to 765 counts.
As for TYICEVEDQKEE, the “COUNTS of radiolabeled gp120 retained” value under setting [2] was determined as 818 counts.
Turning to PLIIKNLKIEDSDTY, the “COUNTS of radiolabeled gp120 retained” value under setting [8] is 661 counts.
For the sequence AFQKASSIVYKKEGEQVE, the “COUNTS of radiolabeled gp120 retained” value under setting [1] is recorded as 514 counts.
As to EQVEFSFPLAFT, the “COUNTS of radiolabeled gp120 retained” value under setting [9] was determined as 1556 counts.
Consider “RCRHRRRQAERMSQIKRLLSE [human CD4 421-441]”, for which the “number of radioactive decays” value is 2075 counts.
In the case of “TEAIAYLRACLNPVLYAF [STRL33 segment 273-290]”, the “radioactive counts recorded” value reads like this: under setting [3], 604.5 counts; under setting [4], 480.5 counts.
